# Measured values published in US20120172453A1, “METHODS FOR TREATING NEURODEGENERATIVE DISEASES” (Coyote Pharmaceuticals, Inc., priority 2010, published 2012).
# Key:
# [1] = system: Rat primary motor neurons; experiment: axon extension of rat primary motor neurons; format: cell-based; conditions: Neuron, cells extending axons counted after 72 hrs, values in parenthesis, read-out: reasonable range expected for the EC50
# Procedure: Rat primary motor neurons were isolated from embryonic spinal cords in accordance with the method of Henderson et al.; J Cohen and G P Wilkin (ed.), Neural Cell Culture, (1995) p69-81 which is herein incorporated by reference in its entirety. Briefly, spinal cords were dissected from day 15 embryo (E15) and incubated in a trypsin solution, and followed by DNase treatment to release spinal cord cells from tissue fragments. The cell suspension was centrifuged to remove tissue fragments. Then motor neurons were enriched by density gradient centrifugation.
# Motor neurons were cultured in serum-free neurobasal medium containing insulin, forskolin, 3-isobutyl-1-methylxanthine, neurotrophic factors, Bovine serum albumin, selenium, transferrin, putrescine, progesterone and B27 supplement in tissue culture plate coated with poly-ornithine and laminin.
# Rat primary motor neurons were prepared and cultured as described Example 11. […] The cells extending axons were counted in five different fields for each treatment after 72 hrs. Percentage of positive cells relative to total cells in the same magnification field was calculated and the results were expressed as means+/− standard deviations, n=5.
# [2] = system: Mouse Neuro2A neuroblastoma cells; experiment: Neuro2A cells with neurites counted after retinoic acid differentiation and GGTI-298; format: cell-based
# Procedure: Mouse Neuro2A neuroblastoma cells were cultured in DMEM supplemented with 10% FBS for 24 hrs. […] Then differentiation was induced by retinoic acid in DMEM supplemented with 2% FBS. An inhibitor against a G-protein, GGTI-298, was incubated. After 24 hrs incubation, cells with neurites were counted.
EC50 [1],Compound,effect of a large quantity on viability of neuroblastoma cells [2]
0.5 to 2 nM,"CC(=O)CC/C=C(\C)CC/C=C(\C)CC/C=C(\C)CCC=C(C)C [CNS-102, 5E,9E,13E-Geranylgeranyl acetone]",
8 to 12 nM,"CC(=O)CC/C=C(/C)CC/C=C(\C)CC/C=C(\C)CCC=C(C)C [CNS-103, 5Z,9E,13E-Geranylgeranyl acetone]",inhibited viability of neuroblastoma cells
